# Measured values taken from US20230288433A1, “DETECTION OF PHOSPHOINOSITIDES IN BLOOD CELLS AS A BIOMARKER FOR ALPHA SYNUCLEIN ASSOCIATED PATHOLOGIES AND A METHOD OF TREATMENT OF PARKINSON'S DISEASE AND THE RELATED NEURODEGENERATIONS” (YISSUM RESEARCH DEVELOPMENT COMPANY OF THE HEBREW …, priority 2021, published 2023).
# Legend:
# [1] = test system: PI3K/AKT pathway; experiment: Treatments in disease models with inhibitors of the PI3K/AKT pathway
# Description: The PI3K/AKT pathway is activated in brains affected with PD and models thereof. Activated PI3K/AKT is exemplified by increases in PI3-Ps, including PI3,4,5P3 and PI3,4P2 that are required for the phosphorylation and activation of AKT phosphorylation at Thr308 and Ser 473. α-Syn is involved in activation of PI3K/AKT pathway. PI3K/AKT activation by α-Syn involves protein palmitoylation. […] Inhibitors of the PI3K/AKT pathway are useful to inhibit α-Syn′ toxicity. These may include Alpelisib and additional inhibitors of PI3K class I that act peripherally not crossing the blood brain barrier (BBB); or GDC-0084 and similar agents that can cross the BBB and act at the central nervous system. Or inhibitors of class II PI3K, for example, HY-151491, HY-151492 or HY-151490.α-Syn enhances PI3K activity by enhancing protein palmitoylation, including Ras palmitoylation that regulates PI3K activity. Class I and class II PI3Ks enzymes harbor a Ras binding domain and thus are affected by α-Syn. Class I and class II PI3Ks enzymes are activated by α-Syn and are targets for PD therapy. Inhibitors for class I and class II PI3Ks may be used for drug repurposing
# [2] = test system: Numb-associated kinases (NAKs); experiment: pAP2 (phospho-Thr156 μ2 subunit of AP2) signal by ICC in SK-Mel2 cells; assay type: cell-based; conditions: 10 μM for 3 hours
# Description: FIGS. 12A-12H include fluorescent micrographs and graphs showing that α-Syn colocalizes with phosphorylated AP2 and PIP2 on clathrin-coated pits. (12A) SK-Mel2 cells were processed for the detection of the immunoreactive signals of endogenous α-Syn (ab 21976 ab, red), phosphorylated Thr156 μ2 subunit of AP2 (pAP2; gray) and PI4,5P2 (green) by immunocytochemistry (ICC). Bar=10 μm. (12B) SK-Mel2 cells treated with LP-935509 (10 μM, for 3 hours), to inhibit the phosphorylation of the μ2 subunit of AP2 and processed for ICC as in (12A). Bar=[…]. (12C) SK-Mel2 cells infected with lentivirus encoding shSNCA to silence α-Syn expression. Cells were treated with LP-935509 inhibitor as in (12B) and processed for ICC. Bar=[…]. (12D) SK-Mel2 cells as in (12A), however, immunoreacted for PI3,4P2 detection (green). Bar=[…]. […] Cells analyzed by FACS to immunodetect PI4,5P2 levels. […] (12G) Cells analyzed by FACS as in (12F) to detect PI3,4P2 signal. […] Colocalization of the signal obtained for α-Syn with the specified PIP was quantified and normalized to total α-Syn positive spots. […]
# Phosphorylation at Thr156 of μ2 subunit of the clathrin adaptor AP2 starts following its binding to PI4,5P2 at the initiation of a CCP and throughout vesicle lifetime. The inventors analyzed SK-Mel2 cells, which express detectable levels of endogenous α-Syn protein. […]
# [3] = test system: muscarinic receptors
# Description: To confirm the specificity of the PI4,5P2 signal that the inventors detected using anti PI4,5P2 Ab in cortical neurons, PI4,5P2 signal depletion following phospholipase C (PLC) activation was determined. […] Control cells were conditioned and treated in parallel but without the drug. Cells were fixed and immunoreacted with anti PI4,5P2 ab (FIG. 10A).
# [4] = test system: PI3K/AKT pathway; experiment: PIP3/PIP2 ratio (FACS) and PSer473/total AKT (Western blot) in HepG2 cells expressing α-Syn; assay type: cell-based; conditions: inhibitor 100 nM for 2 hours, combined with CRISPR/CAS for PI3KCA or PI3KCB
# Description: FIGS. 25A-25D include vertical bar graphs showing that silencing either PI3KCA or PI3KCB interfere with α-Syn-mediated AKT activation. (25A) HepG2 cells were co-infected with an empty vector (EV) or α-Syn expressing vector together with a CRISPR/CAS vector to silence either PI3KCA (CA, p110α) or PI3KCB (CB, p110β), or a control vector (CT). 72 hours post infection, cells were processed for the detection of PIPs by FACS or analyzed by Western blotting for the detection of AKT. […] (25B) The effect of PIK75 (100 nM, PI3KCA inhibitor) or TGX 221 (100 nM, PIKCB inhibitor) on PIP3/PIP2 ratio (left) or PSer473/total AKT ratio (right) as a function of α-Syn expression. Inhibitors were added for 2 hours before cells were lysed. […] Results are mean±SD of n=3-4 trials.
# [5] = test system: HEK 293T cells; experiment: PI4,5P2 levels by ICC after rapamycin-induced recruitment of the Inp45p phosphatase to the plasma membrane; assay type: cell-based; conditions: HEK 293T expressing Lyn-FRB and FKBP-CFP-Inp54p, rapamycin 500 nM; DMSO treated cells set at 100%
# Description: (§1) FIGS. 15A-15E include fluorescent micrographs, a micrograph, and graphs showing that the enhancing effect of α-Syn on CME is PI4,5P2 dependent. (15A) HEK 293T cells, transfected to co-express the three plasmids: Lyn-FRB, FKBP-CFP-Inp54p and WT α-Syn. On day of experiment, cells were serum starved for 90 minutes and then incubated for 7 minutes with 568-Tf and rapamycin (500 nM) to induce the recruitment of the Inp45p phosphatase (P-ase) to the plasma membrane along with internalization of 568-Tf. Control cells were treated in parallel with DMSO (0.5% v/v). Cells were then acid-washed, fixed and immunoreacted with anti α-Syn ab (MJFR1; Green). Direct fluorescence for CFP (P-ase; Grey) and 568-Tf (Red). (15B) HEK 293T cells expressing Lyn-FRB and FKBP-CFP-Inp54p were treated either with rapamycin or DMSO as described in (15A), followed by immunoreaction with anti PI4,5P2 ab (Echelon). A quantification of PI4,5P2 signal is shown (n>9 cells per treatment; mean±SE; * P<0.01 t-test). (15C) Graph showing quantification of internalized 568-Tf signal in cells transfected and treated as in (15A). Cells transfected with a mock vector (white bars, squares) or α-Syn (black bars, circles). […] Protein samples were analyzed by a western blot, immunoreacted with anti-Nir2 ab (Abcam). […] Sister cultures were immunoreacted with anti PI4,5P2 ab and analyzed by FACS. […]
# [6] = test system: HEK 293T cells; experiment: 568-Tf (transferrin) endocytosis with the rapamycin-inducible phosphatase; assay type: cell-based; conditions: control cultures without Inp45p expression
# Description: as §1
# [7] = test system: APT1/APT2 depalmitoylases; experiment: PIP3/PIP2 ratio by FACS in α-Syn expressing HepG2 cells with depalmitoylase inhibitors; assay type: cell-based; conditions: serum starved 4 hours, 10 μM each
# Description: ML348 and ML349, inhibit the depalmitoylating enzymes Acyl protein thioesterase 1 and 2 (APT-1, APT-2, respectively). HepG2 cells were infected to express a mock vector (EV) or α-Syn. 5 days post infection, cells were serum starved for 4 hours in the presence of the indicated inhibitors: 2-Bromo-Palmitate (2BP 50 μM, an inhibitor of palmitoylation), ML348 and ML349 (10 μM each). PIP levels determined by FACS as in FIG. 4. The ratio of PI3,4,5P3 (PIP3) to PI4,5P2 (PIP2) is presented. A representative experiment out of n=2 highly similar experiments. Mean±SE of the replicates within one experiment, n>2,000 gated cells.
compound,measurement,setting,value
NC1(c2ccc(-c3nc4ccn5c(=O)[nH]nc5c4cc3-c3ccccc3)cc2)CCC1 [MK2206],aberrant activation of the PI3K/AKT pathway by α-Syn,[1],reduce the aberrant activation of this pathway by α-Syn
COc1ncccc1-c1cnn2ccc(N3CCN(C(=O)OC(C)C)CC3)nc12 [LP-935509],colocalization of α-Syn and pAP2,[2],no obvious colocalization
same,pAP2 signal,[2],dramatically reduced
CC[C@@H]1C(=O)OC[C@@H]1Cc1cncn1C [pilocarpine],"PI4,5P2 signal following PLC activation",[3],"loss of PI4,5P2 signal"
Cc1ccc([N+](=O)[O-])cc1S(=O)(=O)N(C)/N=C/c1cnc2ccc(Br)cn12 [PIK75],aberrant activation of the PI3K/AKT pathway by α-Syn,[1],reduce the aberrant activation of this pathway by α-Syn
same,"α-Syn-mediated increases in PI3K/AKT pathway activation (PIP3/PIP2 ratio, PSer473/total AKT)",[4],inhibition of α-Syn-mediated increases in PI3K/AKT pathway activation
CO[C@H]1C[C@@H]2CC[C@@H](C)[C@@](O)(O2)C(=O)C(=O)N2CCCC[C@H]2C(=O)O[C@H]([C@H](C)C[C@@H]2CC[C@@H](O)[C@H](OC)C2)CC(=O)[C@H](C)/C=C(\C)[C@@H](O)[C@@H](OC)C(=O)[C@H](C)C[C@H](C)/C=C/C=C/C=C/1C [rapamycin],"PI4,5P2 levels",[5],26%
same,α-Syn-induced CME (568-Tf internalization),[6],no effect
O=C(CN1CCN(C(=O)c2ccco2)CC1)Nc1cc(C(F)(F)F)ccc1Cl [ML348],effects of α-Syn to enhance PIP3 levels (PIP3 to PIP2 ratio),[7],interfere with the effects of α-Syn to enhance PIP3 levels
Cc1cc(C(C)Nc2ccccc2)c2nc(N3CCOCC3)cc(=O)n2c1 (stereo not drawn) [TGX 221],aberrant activation of the PI3K/AKT pathway by α-Syn,[1],reduce the aberrant activation of this pathway by α-Syn
same,"α-Syn-mediated increases in PI3K/AKT pathway activation (PIP3/PIP2 ratio, PSer473/total AKT)",[4],inhibition of α-Syn-mediated increases in PI3K/AKT pathway activation
COc1ccc(N2CCN(C(=O)c3cc4c(s3)-c3ccccc3S(=O)(=O)C4)CC2)cc1 [ML349],effects of α-Syn to enhance PIP3 levels (PIP3 to PIP2 ratio),[7],interfere with the effects of α-Syn to enhance PIP3 levels
